Results from PMC12531871, “Indole-2-carboxamides Optimization for Antiplasmodial Activity” (ACS Bio & Med Chem Au, 2025).
Values after ≈ are worked out from the molar mass of the structure shown. Where two headings read alike, the source gives them in different places.

Assays:
[1] = test system: P. falciparum 3D7 strain (Pf3D7); experiment: Antiplasmodial activity against P. falciparum 3D7 blood-stage parasites (SYBR Green, 72 h); format: cell-based, Plasmodium falciparum; settings: for IC50: Plasmodium falciparum; for Pf3D7-IC50 compared to 6a: regio-isomers compared to 6a
[2] = eLogD at pH 7.4, miniaturized shake flask method; format: physicochemical; settings: 1-octanol/PBS (1:1, v/v), pH 7.4, pH 7.4, miniaturized shake flask method
Procedure: eLogD at pH 7.4 was determined using a miniaturized shake flask method. A solution of a presaturated mixture of 1-octanol and phosphate-buffered saline (PBS) (1:1, v/v) and the test compound (75 μM) was incubated at 25 °C with constant shaking (850 rpm) for 2h. After incubation, the organic and aqueous phases were separated, and samples of each phase were transferred to a plate for dilution. […] The samples were quantitated using LC-MS/MS. The experiment was carried out in duplicate. Propranolol, Amitriptyline, and Midazolam were used as reference standards.

[3] = Kinetic solubility at pH 7.4; format: physicochemical; settings: phosphate-buffered saline, 25 °C, pH 7.4, aqueous buffer, kinetic from dmso stock; read-out: Kinetic solubility (Sol)
Procedure: Kinetic solubility assay was performed using UV–vis detection. […] The samples were filtered using a multiscreen solubility filter plate. The filtrate was diluted by 50% with MeCN. A five-point linearity curve was prepared in PBS/MeCN (1:1, v/v) at 200, 150, 75, 25, and 2.5 μM. Blank, linearity, and test samples (n = 2) were transferred to a UV-readable plate, and the plate was scanned for absorbance. Best-fit calibration curves were constructed using the calibration standards and used to determine the test sample solubility. The experiment was carried out in duplicate. Diethylstilbestrol, Haloperidol, and Diclofenac Sodium were used as reference standards.

Rat hepatocyte stability = format: in vitro ADME; settings: rat hepatocyte stability
Procedure: The reaction was terminated with the addition of ice-cold MeCN at designated time points. The samples were then centrifuged (4200 rpm) for 20 min at 20 °C, and the supernatant was half diluted in water and then analyzed using LCMS/MS. The % parent compound remaining, half-life (t 1/2), and clearance (CLint) were calculated using standard methodology. The experiment was carried out in duplicate. Diltiazem, 7-Ethoxy Coumarin, Propranolol, and Midazolam were used as reference standards.

[4] = Human liver microsome stability; format: in vitro ADME; settings: human, pooled human liver microsomes, human microsomal intrinsic clearance; read-out: hMics, human microsome Clint
Procedure: A solution of the test compounds in phosphate buffer solution (1 μM) was incubated in pooled human or mouse liver microsomes (0.5 mg/mL) for 0, 5, 20, 30, 45, and 60 min at 37 °C in the presence and absence of an NADPH regeneration system (NRS). The tests were conducted by […], India. The reaction was terminated with the addition of ice-cold acetonitrile, containing a […] standard, at designated time points. The sample was centrifuged (4200g) for 20 min at 20 °C and the supernatant was diluted by half in water and then analyzed by LC-MS/MS. The % parent compound remaining, half-life (t 1/2) and clearance (CLint) were calculated using standard methodology. The experiment was carried out in duplicate. Verapamil, diltiazem, phenacetin, and imipramine were used as reference standards.

P. falciparum K1 strain = experiment: Antiplasmodial activity against resistant P. falciparum K1; format: cell-based; settings: Plasmodium falciparum, 3D7 / K1; resistant K1, in parallel with 3D7; read-out: IC50^K1 ± SD
P. falciparum Dd2 strain = experiment: Antiplasmodial activity against resistant P. falciparum Dd2; format: cell-based; settings: Plasmodium falciparum, 3D7 / DD2; resistant Dd2, in parallel with 3D7; read-out: IC50^Dd2 ± SD
[5] = Resazurin assay for cytotoxicity in HepG2 cells; format: cell-based, human; settings: human, HepG2 cells; HepG2 cell line, 72 h, resazurin
Procedure: HepG2 cells were trypsinized, counted, and distributed in a 96-well plate at a density of 30,000 cells per well (180 μL). The plate was incubated at 37 °C and 5% CO2 for 24 h. Following incubation, 20 μL of serial dilutions of the tested compounds were added to the wells, with concentrations ranging from 30 to 0.47 μM. The plate was incubated for an additional 72 h at 37 °C and 5% CO2. Untreated cells served as positive controls, while wells containing only medium were used as negative controls. Postincubation, microscopy was employed to determine the highest compound concentration for treatment results. […] Concentration–response curves were generated, and half-maximal inhibitory concentration (CC50) values were determined using nonlinear regression analysis.

[6] = 3D7, 72 h, 3D7 strain, 72 h, SYBR Green, read-out: Pf3D7-IC50
[7] = 3D7 / DD2, sensitive 3D7, in parallel with K1 and Dd2, read-out: IC50^3D7 ± SD

| Compound | IC50 [1, 6] [µM] | logD at 2 h [2] | solubility kinetic at 2 h [3] [µM] | R Heps (Clint) (Rat hepatocyte stability) [μL/min/10^6] | microsomal CLint at 1 μM [4] [µL/min/mg] | also measured |
| --- | --- | --- | --- | --- | --- | --- |
| O=C(c1cc2cc(Cl)ccc2[nH]1)N(Cc1ccc(C(F)(F)F)nc1)CC1CCNC1 (centres unmarked) [Compound 6o, 5-Chloro-N-(pyrrolidin-3-ylmethyl)-N-[[6-(trifluoromethyl)-3-pyridyl]methyl]-1H-indole-2-carboxamide] | 4.3 ± 0.2 | 1.5 | 883 (≈ 386 µg/mL) | 10 | 3 |  |
| O=C(c1cccc(Cl)c1)N(Cc1cccnc1)CC1CCNC1 (centres unmarked) [Compound 6j, 3-Chloro-N-(pyridin-3-ylmethyl)-N-(pyrrolidin-3-ylmethyl)benzamide] | > 25 |  |  |  |  |  |
| O=C(c1nc2cc(Cl)ccc2[nH]1)N(Cc1cccnc1)CC1CCNC1 (centres unmarked) [Compound 6i, 5-Chloro-N-(3-pyridylmethyl)-N-(pyrrolidin-3-ylmethyl)-1H-benzimidazole-2-carboxamide] | > 10 |  |  |  |  |  |
| CN1CCC(CN(Cc2cccnc2)C(=O)c2cc3cc(Cl)ccc3[nH]2)C1 (centres unmarked) [Compound 7a, 5-Chloro-N-[(1-methylpyrrolidin-3-yl)methyl]-N-(pyridin-3-ylmethyl)-1H-indole-2-carboxamide] | 0.46 ± 0.05 | 1.6 | 190 (≈ 72.8 µg/mL) | 28 | 20 | IC50 [1, 7]: 0.8 ± 0.2 µM; IC50 (P. falciparum K1 strain): 1.2 ± 0.3 µM; IC50 (P. falciparum Dd2 strain): 2.2 ± 0.3 µM |
| O=C(c1cc2cc(Cl)ccc2[nH]1)N(Cc1cccnc1)C[C@@H]1CCNC1 [6a (R), 5-Chloro-N-(3-pyridylmethyl)-N-[[(3R)-pyrrolidin-3-yl]methyl]-1H-indole-2-carboxamide] | 1 ± 0.2 | 0.7 | 196 (≈ 72.3 µg/mL) | 8 | 10 | CC50 at 72 h [5]: > 30 µM |
| O=C(c1c[nH]c2ccc(Cl)cc12)N(Cc1cccnc1)CC1CCNC1 (centres unmarked) [Compound 6h, 5-Chloro-N-(3-pyridylmethyl)-N-(pyrrolidin-3-ylmethyl)-1H-indole-3-carboxamide] | > 10 |  |  |  |  |  |
| O=C(c1cc2cc(Cl)ccc2[nH]1)N(Cc1ccccn1)CC1CCNC1 (centres unmarked) [Compound 6m, 5-Chloro-N-(2-pyridylmethyl)-N-(pyrrolidin-3-ylmethyl)-1H-indole-2-carboxamide] | 14.1 ± 0.6 |  |  |  |  | Pf3D7-IC50 compared to 6a [1]: > 10 fold |
| O=C(c1cc2cc(F)ccc2[nH]1)N(Cc1cccnc1)CC1CCNC1 (centres unmarked) [Compound 6e, 5-Fluoro-N-(3-pyridylmethyl)-N-(pyrrolidin-3-ylmethyl)-1H-indole-2-carboxamide] | 8.8 ± 0.1 | -0.1 | > 1000 | 32 | 7 |  |
| O=C(c1cc2cc(Cl)ccc2[nH]1)N(Cc1ccncc1)CC1CCNC1 (centres unmarked) [Compound 6l, 5-Chloro-N-(4-pyridylmethyl)-N-(pyrrolidin-3-ylmethyl)-1H-indole-2-carboxamide] | 12.8 ± 0.8 |  |  |  |  | Pf3D7-IC50 compared to 6a [1]: > 10 fold |
| O=C(c1cc2cc(Cl)ccc2[nH]1)N(Cc1cccnc1)C[C@H]1CCNC1 [6a (S), 5-Chloro-N-(3-pyridylmethyl)-N-[[(3S)-pyrrolidin-3-yl]methyl]-1H-indole-2-carboxamide] | 2 ± 0.4 | 0.7 | 196 (≈ 72.3 µg/mL) | 12 | 3 | CC50 at 72 h [5]: > 30 µM |
| Cc1c(C(=O)N(Cc2cccnc2)CC2CCNC2)[nH]c2ccc(Cl)cc12 (centres unmarked) [Compound 6g, 5-Chloro-3-methyl-N-(3-pyridylmethyl)-N-(pyrrolidin-3-ylmethyl)-1H-indole-2-carboxamide] | 5.8 |  |  |  |  | IC50 [1, 7]: 4.2 ± 0.5 µM; IC50 (P. falciparum K1 strain): 6.3 ± 0.3 µM; IC50 (P. falciparum Dd2 strain): 9 ± 0.7 µM |
| O=C(c1cc2cc(Cl)ccc2[nH]1)N(Cc1ccccc1)CC1CCNC1 (centres unmarked) [Compound 6k, N-Benzyl-5-chloro-N-(pyrrolidin-3-ylmethyl)-1H-indole-2-carboxamide] | 6.7 ± 0.3 |  |  |  |  |  |
| O=C(c1cc2ccccc2[nH]1)N(Cc1cccnc1)CC1CCNC1 (centres unmarked) [Compound 6b, N-(3-Pyridylmethyl)-N-(pyrrolidin-3-ylmethyl)-1H-indole-2-carboxamide] | 8.3 ± 0.2 |  |  |  |  |  |
| O=C(c1cc2cccc(Cl)c2[nH]1)N(Cc1cccnc1)CC1CCNC1 (centres unmarked) [Compound 6c, 7-Chloro-N-(3-pyridylmethyl)-N-(pyrrolidin-3-ylmethyl)-1H-indole-2-carboxamide] | 2.2 ± 0.3 | 0.2 | > 1000 | 60 | 4 | IC50 [1, 7]: 2.3 ± 0.6 µM; IC50 (P. falciparum K1 strain): 4.9 ± 0.6 µM; IC50 (P. falciparum Dd2 strain): 8.2 ± 0.3 µM |
| O=C(c1cc2cc(Cl)ccc2[nH]1)N(Cc1cccnc1)C1CCNC1 (centres unmarked) [Compound 6v, 5-Chloro-N-(3-pyridylmethyl)-N-pyrrolidin-3-yl-1H-indole-2-carboxamide] | 0.57 ± 0.07 | 0.9 | > 1000 | 17 | < 3 |  |
| O=C(c1cc2cc(Cl)ccc2[nH]1)N(Cc1cccnc1)CC1CCNCC1 [Compound 6w, 5-Chloro-N-(4-piperidylmethyl)-N-(3-pyridylmethyl)-1H-indole-2-carboxamide] | 0.9 ± 0.1 | 0.5 | > 1000 | 9 | < 3 |  |
| O=C(c1cc2cc(Cl)ccc2[nH]1)N(Cc1cccnc1)CC1CCOC1 (centres unmarked) [Compound 5r, 5-Chloro-N-(pyridin-3-ylmethyl)-N-((tetrahydrofuran-3-yl)methyl)-1H-indole-2-carboxamide] | > 10 |  |  |  |  |  |
| O=C(c1cc2cc(Cl)ccc2[nH]1)N(Cc1cnccn1)CC1CCNC1 (centres unmarked) [Compound 6n, 5-Chloro-N-(pyrazin-2-ylmethyl)-N-(pyrrolidin-3-ylmethyl)-1H-indole-2-carboxamide] | > 10 |  |  |  |  |  |
| CNCCN(Cc1cccnc1)C(=O)c1cc2cc(Cl)ccc2[nH]1 [Compound 6u, 5-Chloro-N-[2-(methylamino)ethyl]-N-(3-pyridylmethyl)-1H-indole-2-carboxamide] | 1.8 ± 0.2 | 2.6 | 148 (≈ 50.7 µg/mL) | 29 | 20 |  |
| CS(=O)(=O)c1ccc(CN(CC2CCNC2)C(=O)c2cc3cc(Cl)ccc3[nH]2)cn1 (centres unmarked) [Compound 6p, 5-Chloro-N-[(6-methylsulfonyl-3-pyridyl)methyl]-N-(pyrrolidin-3-ylmethyl)-1H-indole-2-carboxamide] | > 10 |  |  |  |  |  |
| CNCCN(CC1CCNC1)C(=O)c1cc2cc(Cl)ccc2[nH]1 (centres unmarked) [Compound 6q, 5-Chloro-N-[2-(methylamino)ethyl]-N-(pyrrolidin-3-ylmethyl)-1H-indole-2-carboxamide] | > 10 |  |  |  |  |  |
| O=C1CC(CN(Cc2cccnc2)C(=O)c2cc3cc(Cl)ccc3[nH]2)CN1 (centres unmarked) [Compound 5s, 5-Chloro-N-[(5-oxopyrrolidin-3-yl)methyl]-N-(3-pyridylmethyl)-1H-indole-2-carboxamide] | > 10 |  |  |  |  |  |
